Tested on: 156681-154-R-J1-PDC complex spheroid viability
Experiment: Anticancer human tumor 156681-154-R-J1-PDC patient-derived melanoma cell line growth inhibition [CLK]
Conditions: for IC50: curve of first compound; for viability, T/C: stronger effect = lower value
Summary of the method: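 Patient-derived tumor cells grown as complex spheroids with HUVEC endothelial cells and mesenchymal stem cells, treated with drug combinations. Concentrations descend in half-log steps from near clinical Cmax, or from 10 microM if Cmax unknown.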
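Further: spheroids exposed to the agents for seven days.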
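Wherever viability, T/C is given: 100% = DMSO vehicle control viability.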

Which results are given for CC(C)CC(NC(=O)C(Cc1ccccc1)NC(=O)c1cnccn1)B(O)O (centres undefined) + CN1CCN(c2cc(C(=O)Nc3cc4cc(-c5cnn(C)c5)ccc4cn3)ccn2)CC1?
IC50 (second compound 0.0316 µM): < 0.949 nM; IC50 (second compound 0.1 µM): < 0.949 nM; IC50 (second compound 0.316 µM): < 0.949 nM; IC50 (second compound 1 µM): < 0.949 nM; IC50 (second compound 3.16 µM): < 0.949 nM; IC50 (second compound 10 µM): < 0.949 nM; viability, T/C (second compound 0.0316 µM, first compound 0.000949 µM): 30.4%; viability, T/C (second compound 0.0316 µM, first compound 0.003 µM): 2%; viability, T/C (second compound 0.0316 µM, first compound 0.00949 µM): 1.41%; viability, T/C (second compound 0.0316 µM, first compound 0.03 µM): 0.26%; viability, T/C (second compound 0.0316 µM, first compound 0.0949 µM): 1.66%; viability, T/C (second compound 0.0316 µM, first compound 0.3 µM): 1.32%; viability, T/C (second compound 0.1 µM, first compound 0.000949 µM): 28%; viability, T/C (second compound 0.1 µM, first compound 0.003 µM): 0.48%; viability, T/C (second compound 0.1 µM, first compound 0.00949 µM): 1.04%; viability, T/C (second compound 0.1 µM, first compound 0.03 µM): 0.2%; viability, T/C (second compound 0.1 µM, first compound 0.0949 µM): 0.26%; viability, T/C (second compound 0.1 µM, first compound 0.3 µM): 0.77%; viability, T/C (second compound 0.316 µM, first compound 0.000949 µM): 13%; viability, T/C (second compound 0.316 µM, first compound 0.003 µM): 0.37%; viability, T/C (second compound 0.316 µM, first compound 0.00949 µM): 0.66%; viability, T/C (second compound 0.316 µM, first compound 0.03 µM): 0.14%; viability, T/C (second compound 0.316 µM, first compound 0.0949 µM): 0.29%; viability, T/C (second compound 0.316 µM, first compound 0.3 µM): 1.48%; viability, T/C (second compound 1 µM, first compound 0.000949 µM): 0.13%; viability, T/C (second compound 1 µM, first compound 0.003 µM): 0.37%; viability, T/C (second compound 1 µM, first compound 0.00949 µM): 0.14%; viability, T/C (second compound 1 µM, first compound 0.03 µM): 0.09%; viability, T/C (second compound 1 µM, first compound 0.0949 µM): 1.37%; viability, T/C (second compound 1 µM, first compound 0.3 µM): 0.12%; viability, T/C (second compound 3.16 µM, first compound 0.000949 µM): 0.33%; viability, T/C (second compound 3.16 µM, first compound 0.003 µM): 1.51%; viability, T/C (second compound 3.16 µM, first compound 0.00949 µM): 0.09%; viability, T/C (second compound 3.16 µM, first compound 0.03 µM): 0.08%; viability, T/C (second compound 3.16 µM, first compound 0.0949 µM): 3.52%; viability, T/C (second compound 3.16 µM, first compound 0.3 µM): 1.36%; viability, T/C (second compound 10 µM, first compound 0.000949 µM): 0.1%; viability, T/C (second compound 10 µM, first compound 0.003 µM): 1.45%; viability, T/C (second compound 10 µM, first compound 0.00949 µM): 2.17%; viability, T/C (second compound 10 µM, first compound 0.03 µM): 0.1%; viability, T/C (second compound 10 µM, first compound 0.0949 µM): 1.66%; viability, T/C (second compound 10 µM, first compound 0.3 µM): 0.84%

What does the source list for CC(=O)O[C@H]1C(=O)[C@@]2(C)[C@H]([C@H](OC(=O)c3ccccc3)[C@]3(O)C[C@H](OC(=O)[C@H](O)[C@@H](NC(=O)c4ccccc4)c4ccccc4)C(C)=C1C3(C)C)[C@]1(OC(C)=O)CO[C@@H]1C[C@@H]2O + CN1CCN(c2cc(C(=O)Nc3cc4cc(-c5cnn(C)c5)ccc4cn3)ccn2)CC1?
IC50 (second compound 0.0316 µM): < 31.6 nM; IC50 (second compound 0.1 µM): < 31.6 nM; IC50 (second compound 0.316 µM): < 31.6 nM; IC50 (second compound 1 µM): < 31.6 nM; IC50 (second compound 3.16 µM): < 31.6 nM; IC50 (second compound 10 µM): < 31.6 nM; viability, T/C (second compound 0.0316 µM, first compound 0.0316 µM): 19.4%; viability, T/C (second compound 0.0316 µM, first compound 0.1 µM): 13.1%; viability, T/C (second compound 0.0316 µM, first compound 0.316 µM): 18.9%; viability, T/C (second compound 0.0316 µM, first compound 1 µM): 16.5%; viability, T/C (second compound 0.0316 µM, first compound 3.16 µM): 23.6%; viability, T/C (second compound 0.0316 µM, first compound 10 µM): 28.9%; viability, T/C (second compound 0.1 µM, first compound 0.0316 µM): 17.6%; viability, T/C (second compound 0.1 µM, first compound 0.1 µM): 14.6%; viability, T/C (second compound 0.1 µM, first compound 0.316 µM): 15.4%; viability, T/C (second compound 0.1 µM, first compound 1 µM): 12.5%; viability, T/C (second compound 0.1 µM, first compound 3.16 µM): 16.3%; viability, T/C (second compound 0.1 µM, first compound 10 µM): 24.3%; viability, T/C (second compound 0.316 µM, first compound 0.0316 µM): 15.1%; viability, T/C (second compound 0.316 µM, first compound 0.1 µM): 21.1%; viability, T/C (second compound 0.316 µM, first compound 0.316 µM): 13.8%; viability, T/C (second compound 0.316 µM, first compound 1 µM): 13%; viability, T/C (second compound 0.316 µM, first compound 3.16 µM): 14.8%; viability, T/C (second compound 0.316 µM, first compound 10 µM): 16.8%; viability, T/C (second compound 1 µM, first compound 0.0316 µM): 0.09%; viability, T/C (second compound 1 µM, first compound 0.1 µM): 0.13%; viability, T/C (second compound 1 µM, first compound 0.316 µM): 0.13%; viability, T/C (second compound 1 µM, first compound 1 µM): 0.34%; viability, T/C (second compound 1 µM, first compound 3.16 µM): 0.12%; viability, T/C (second compound 1 µM, first compound 10 µM): 0.13%; viability, T/C (second compound 3.16 µM, first compound 0.0316 µM): 0.09%; viability, T/C (second compound 3.16 µM, first compound 0.1 µM): 0.74%; viability, T/C (second compound 3.16 µM, first compound 0.316 µM): 0.35%; viability, T/C (second compound 3.16 µM, first compound 1 µM): 0.08%; viability, T/C (second compound 3.16 µM, first compound 3.16 µM): 0.23%; viability, T/C (second compound 3.16 µM, first compound 10 µM): 0.22%; viability, T/C (second compound 10 µM, first compound 0.0316 µM): 0.09%; viability, T/C (second compound 10 µM, first compound 0.1 µM): 0.7%; viability, T/C (second compound 10 µM, first compound 0.316 µM): 0.46%; viability, T/C (second compound 10 µM, first compound 1 µM): 0.52%; viability, T/C (second compound 10 µM, first compound 3.16 µM): 0.61%; viability, T/C (second compound 10 µM, first compound 10 µM): 0.3%

Reference: PubChem BioAssay AID2060627 (Molecular Pharmacology Branch, DTP, NCI, 2025)
